Tests used:
Format in all cases: in vivo, human
[1] = system: patients with Nonalcoholic Steatohepatitis; experiment: Phase 3 trial in Nonalcoholic Steatohepatitis (Example 2): sex hormone levels; conditions: for Estradiol (female) LS Mean Difference / Estradiol (male) LS Mean Difference / FSH (female) LS Mean Difference / FSH (male) LS Mean Difference / Free testosterone (female) LS Mean Difference / Free testosterone (male) LS Mean Difference / LH (female) LS Mean Difference / LH (male) LS Mean Difference / SHBG (female) LS Mean Difference in % CFB / SHBG (female) LS Mean Difference in CFB / SHBG (male) LS Mean Difference in % CFB / SHBG (male) LS Mean Difference in CFB / SHBG LS Mean Difference in % CFB / SHBG LS Mean Difference in CFB / Testosterone (female) LS Mean Difference / Testosterone (male) LS Mean Difference / Estradiol (female) LS Mean CFB (SE) / Estradiol (male) LS Mean CFB (SE) / FSH (female) LS Mean CFB (SE) / FSH (male) LS Mean CFB (SE) / Free testosterone (female) LS Mean CFB (SE) / Free testosterone (male) LS Mean CFB (SE) / LH (female) LS Mean CFB (SE) / LH (male) LS Mean CFB (SE) / SHBG (female) LS Mean % CFB (SE) / SHBG (female) LS Mean CFB (SE) / SHBG (male) LS Mean % CFB (SE) / SHBG (male) LS Mean CFB (SE) / SHBG LS Mean % CFB (SE) / SHBG LS Mean CFB (SE) / Testosterone (female) LS Mean CFB (SE) / Testosterone (male) LS Mean CFB (SE): Week 52
Method: A randomized, double-blind, placebo-controlled Phase 3 trial was conducted. Patients were randomly assigned to receive resmetirom 80 mg, resmetirom 100 mg, or placebo administered orally once daily. Screening biopsy results were used as baseline for histologic variables and a second biopsy was performed at Week 52.

[2] = system: adults with nonalcoholic fatty liver disease (NAFLD)/presumed nonalcoholic steatohepatitis (NASH); experiment: 52-week Phase 3 trial (Example 1): hepatic fat by MRI-PDFF
Method: (§1) A 52-week randomized, double-blind, placebo-controlled Phase 3 trial was conducted to evaluate the safety and effect of resmetirom, an oral, once-daily, liver-targeted thyroid hormone receptor-β selective agonist, on multiple biomarkers in adults with nonalcoholic fatty liver disease (NAFLD)/presumed nonalcoholic steatohepatitis (NASH). Patients were randomized to three double-blind arms (100 mg resmetirom, 80 mg resmetirom, or placebo) or one open-label arm (100 mg resmetirom). Common concomitant medications across the 4 arms were antidiabetes drugs (such as glucagon-like peptide-1 receptor agonists (GLP-1 RAs), metformin, pioglitazone, and sodium/glucose cotransporter-2 inhibitors (SGLT2i)) and drugs to manage dyslipidemia (statins).

[3] = system: adults with nonalcoholic fatty liver disease (NAFLD)/presumed nonalcoholic steatohepatitis (NASH); experiment: 52-week Phase 3 trial (Example 1): sex hormone levels; conditions: Resmetirom 80 mg DB vs Placebo DB, Week 52
Method: as §1
Sex hormone levels after 52 weeks of resmetirom treatment are shown in Table A. Thyroid hormone levels after 52 weeks of resmetirom treatment are reported in Table B.

For `CC(C)c1cc(Oc2c(Cl)cc(-n3nc(C#N)c(=O)[nH]c3=O)cc2Cl)n[nH]c1=O` [Resmetirom, 2-[3,5-dichloro-4-[(6-oxo-5-propan-2-yl-1H-pyridazin-3-yl)oxy]phenyl]-3,5-dioxo-1,2,4-triazine-6-carbonitrile], the “Estradiol (female) LS Mean Difference” value ([1]; Resmetirom 80 mg from PBO) was 15.9 ng/L, the “Estradiol (male) LS Mean Difference” value ([1]; Resmetirom 80 mg from PBO) was 9.0 ng/L and the “FSH (female) LS Mean Difference” value ([1]; Resmetirom 80 mg from PBO) was 0.79 mIU/mL. For the same molecule, the “FSH (male) LS Mean Difference” value ([1]; Resmetirom 80 mg from PBO) was 1.1 mIU/mL, the “Free testosterone (female) LS Mean Difference” value ([1]; Resmetirom 80 mg from PBO) was 0 nmol/L and the “Free testosterone (male) LS Mean Difference” value ([1]; Resmetirom 80 mg from PBO) was 0.02 nmol/L. For the same molecule, the “LH (female) LS Mean Difference” value ([1]; Resmetirom 80 mg from PBO) was −0.33 mIU/mL, the “LH (male) LS Mean Difference” value ([1]; Resmetirom 80 mg from PBO) was 1.8 mIU/mL and the “SHBG (female) LS Mean Difference in % CFB” value ([1]; Resmetirom 80 mg from PBO) was 177.4%. For the same molecule, the “SHBG (female) LS Mean Difference in CFB” value ([1]; Resmetirom 80 mg from PBO) was 73.3 nmol/L, the “SHBG (male) LS Mean Difference in % CFB” value ([1]; Resmetirom 80 mg from PBO) was 107.3% and the “SHBG (male) LS Mean Difference in CFB” value ([1]; Resmetirom 80 mg from PBO) was 40.4 nmol/L. The “SHBG LS Mean Difference in % CFB” value ([1]; Resmetirom 80 mg from PBO) was 148.5%, the “SHBG LS Mean Difference in CFB” value ([1]; Resmetirom 80 mg from PBO) was 58.9 nmol/L and the “Testosterone (female) LS Mean Difference” value ([1]; Resmetirom 80 mg from PBO) was 0.15 µg/L. For the same molecule, the “Testosterone (male) LS Mean Difference” value ([1]; Resmetirom 80 mg from PBO) was 2.2 µg/L, the “Estradiol (female) LS Mean CFB (SE)” value ([1]; Resmetirom 80 mg) was 17.7 (8.0) ng/L and the “Estradiol (male) LS Mean CFB (SE)” value ([1]; Resmetirom 80 mg) was 8.9 (1.3) ng/L. The “FSH (female) LS Mean CFB (SE)” value ([1]; Resmetirom 80 mg) was −0.54 (0.89) mIU/mL, the “FSH (male) LS Mean CFB (SE)” value ([1]; Resmetirom 80 mg) was 1.1 (0.24) mIU/mL and the “Free testosterone (female) LS Mean CFB (SE)” value ([1]; Resmetirom 80 mg) was 0 (0.001) nmol/L. For the same molecule, the “Free testosterone (male) LS Mean CFB (SE)” value ([1]; Resmetirom 80 mg) was 0.04 (0.009) nmol/L, the “LH (female) LS Mean CFB (SE)” value ([1]; Resmetirom 80 mg) was −0.93 (0.69) mIU/mL and the “LH (male) LS Mean CFB (SE)” value ([1]; Resmetirom 80 mg) was 1.7 (0.30) mIU/mL. The “SHBG (female) LS Mean % CFB (SE)” value ([1]; Resmetirom 80 mg) was 193.0 (15.3) %, the “SHBG (female) LS Mean CFB (SE)” value ([1]; Resmetirom 80 mg) was 74.1 (6.0) nmol/L and the “SHBG (male) LS Mean % CFB (SE)” value ([1]; Resmetirom 80 mg) was 108.0 (11.2) %. The “SHBG (male) LS Mean CFB (SE)” value ([1]; Resmetirom 80 mg) was 41.9 (4.2) nmol/L, the “SHBG LS Mean % CFB (SE)” value ([1]; Resmetirom 80 mg) was 157.5 (10.2) % and the “SHBG LS Mean CFB (SE)” value ([1]; Resmetirom 80 mg) was 60.2 (4.0) nmol/L. For the same molecule, the “Testosterone (female) LS Mean CFB (SE)” value ([1]; Resmetirom 80 mg) was 0.15 (0.019) ug/L, the “Testosterone (male) LS Mean CFB (SE)” value ([1]; Resmetirom 80 mg) was 2.6 (0.26) ug/L and the “Estradiol (female) LS Mean Difference” value ([1]; Resmetirom 100 mg from PBO) was 28.8 ng/L. The “Estradiol (male) LS Mean Difference” value ([1]; Resmetirom 100 mg from PBO) was 11.2 ng/L, the “FSH (female) LS Mean Difference” value ([1]; Resmetirom 100 mg from PBO) was 2.0 mIU/mL and the “FSH (male) LS Mean Difference” value ([1]; Resmetirom 100 mg from PBO) was 1.7 mIU/mL. The “Free testosterone (female) LS Mean Difference” value ([1]; Resmetirom 100 mg from PBO) was 0 nmol/L, the “Free testosterone (male) LS Mean Difference” value ([1]; Resmetirom 100 mg from PBO) was 0.01 nmol/L and the “LH (female) LS Mean Difference” value ([1]; Resmetirom 100 mg from PBO) was 1.4 mIU/mL. The “LH (male) LS Mean Difference” value ([1]; Resmetirom 100 mg from PBO) was 2.0 mIU/mL, the “SHBG (female) LS Mean Difference in % CFB” value ([1]; Resmetirom 100 mg from PBO) was 236.2% and the “SHBG (female) LS Mean Difference in CFB” value ([1]; Resmetirom 100 mg from PBO) was 93.2 nmol/L. For the same molecule, the “SHBG (male) LS Mean Difference in % CFB” value ([1]; Resmetirom 100 mg from PBO) was 173.3%, the “SHBG (male) LS Mean Difference in CFB” value ([1]; Resmetirom 100 mg from PBO) was 59.3 nmol/L and the “SHBG LS Mean Difference in % CFB” value ([1]; Resmetirom 100 mg from PBO) was 208.4%. The “SHBG LS Mean Difference in CFB” value ([1]; Resmetirom 100 mg from PBO) was 79.4 nmol/L, the “Testosterone (female) LS Mean Difference” value ([1]; Resmetirom 100 mg from PBO) was 0.19 µg/L and the “Testosterone (male) LS Mean Difference” value ([1]; Resmetirom 100 mg from PBO) was 3.0 µg/L. For the same molecule, the “Estradiol (female) LS Mean CFB (SE)” value ([1]; Resmetirom 100 mg) was 30.6 (8.3) ng/L, the “Estradiol (male) LS Mean CFB (SE)” value ([1]; Resmetirom 100 mg) was 11.0 (1.3) ng/L and the “FSH (female) LS Mean CFB (SE)” value ([1]; Resmetirom 100 mg) was 0.63 (0.92) mIU/mL. The “FSH (male) LS Mean CFB (SE)” value ([1]; Resmetirom 100 mg) was 1.7 (0.24) mIU/mL, the “Free testosterone (female) LS Mean CFB (SE)” value ([1]; Resmetirom 100 mg) was 0 (0.001) nmol/L and the “Free testosterone (male) LS Mean CFB (SE)” value ([1]; Resmetirom 100 mg) was 0.03 (0.009) nmol/L. For the same molecule, the “LH (female) LS Mean CFB (SE)” value ([1]; Resmetirom 100 mg) was 0.80 (0.72) mIU/mL, the “LH (male) LS Mean CFB (SE)” value ([1]; Resmetirom 100 mg) was 1.9 (0.30) mIU/mL and the “SHBG (female) LS Mean % CFB (SE)” value ([1]; Resmetirom 100 mg) was 251.8 (16.0) %. The “SHBG (female) LS Mean CFB (SE)” value ([1]; Resmetirom 100 mg) was 94.0 (6.3) nmol/L, the “SHBG (male) LS Mean % CFB (SE)” value ([1]; Resmetirom 100 mg) was 174.0 (10.9) % and the “SHBG (male) LS Mean CFB (SE)” value ([1]; Resmetirom 100 mg) was 60.8 (4.1) nmol/L. The “SHBG LS Mean % CFB (SE)” value ([1]; Resmetirom 100 mg) was 217.4 (10.3) %, the “SHBG LS Mean CFB (SE)” value ([1]; Resmetirom 100 mg) was 80.7 (4.1) nmol/L and the “Testosterone (female) LS Mean CFB (SE)” value ([1]; Resmetirom 100 mg) was 0.19 (0.020) ug/L. For the same molecule, the “Testosterone (male) LS Mean CFB (SE)” value ([1]; Resmetirom 100 mg) was 3.5 (0.25) ug/L, the “Change in sex hormones from baseline” value ([1]; in vivo) was “unchanged, except for SHBG increases” and the “hepatic fat reduction, 80 mg compared with 100 mg” value ([2]; 80 mg resmetirom, in general) was “less effective than 100 mg resmetirom”. The “hepatic fat (MRI-PDFF), change from baseline” value ([2]; Week 52, all key patient subgroups) was “reduced hepatic fat from baseline”, the “hepatic fat reduction by subgroup” value ([2]; weight gain ≥5% or <120% increase in SHBG) was “lower hepatic fat reduction” and the “hepatic fat reduction by subgroup” value ([2]; weight loss ≥5% or ≥120% increase from baseline in SHBG) was “greater reduction in hepatic fat”. For the same molecule, the “Estradiol (female) LSM Difference” value [3] was 7.1 ng/L, the “Estradiol (male) LSM Difference” value [3] was 4.8 ng/L and the “FSH (female) LSM Difference” value [3] was −1.1 IU/L. For the same molecule, the “FSH (male) LSM Difference” value [3] was 0.2 IU/L and the “Free testosterone (female) LSM Difference” value [3] was 0.0002 µg/L.

Reference: patent publication US20240423992A1, “BIOMARKERS FOR TREATING LIVER DISORDERS WITH THR-B AGONISTS AND RELATED USES” (Madrigal Pharmaceuticals, Inc., priority 2023, published 2024)
